What was measured:
[1] = test system: CD4^+ T cells; test: Long term growth of CD4+ T cells with coated beads (Example 19); type: cell-based, human; details: CD4 and CD8^+ T cells
Protocol: CD28^+ T cells were divided into the CD4 and CD8^+ T cell subsets as described in Example 13. […] No cytokine or feeder cells were added to these cultures, and the cultures were maintained as described in Example 1.

[2] = test system: CD4^+ T cells; test: Lymphokine production by CD4+ T cells (Table 4); type: cell-based, human
From the text: (§1) To assess whether distinct T cell subsets might differentially respond to B7-1 or B7-2, CD28^+ T cells were divided into CD28^+CD4^+ and CD28^+CD8^+cells and into CD4^+CD45RO^+ and CD4^+CD45RA+subsets. To obtain CD28^+CD4^+ or CD28^+CD8^+ T cells, the CD28^+ T cells were subjected to a second round of negative selection using magnetic beads (Dynal) coated with CD8 or CD4 mAb as described in June et al. (1989) J. Immunol. 143:153. CD4^+CD45RO^+ and CD4^+CD45RA^+ subpopulations were isolated by subjecting CD28^+ T cells to negative selection using magnetic beads and anti-CD45RO monoclonal antibody UCHL1 or anti-CD45RA monoclonal antibody ALB11 (Immuntech). […]

[3] = test system: CD28^+ T cells; test: Lymphokine production by CD28+ T cells, ELISA 24 h (Table 3); type: cell-based, human; details: no CHO cells
Protocol: All values were assessed by using dilutions of culture supernatant that yielded read-outs within the linear portion of the standard curve. The cytokine production data is summarized below in Table 3.

[4] = test system: CD8^+ T cells; test: Lymphokine production by CD8+ T cells (Table 4); type: cell-based, human
From the text: as §1

[5] = test system: CD28-induced IL-2 production; details: cited from earlier work
[6] = molecular target: T1, human CD28 (human, UniProt P10747 19-220); test: immunofluorescence on Jurkat cells (CD28+ CTLA4-)
T1 construct: whole, on cells; also called CD28 on CHO-hh (CHO-HH) cells; CD28 on Jurkat #7 cells

OKT3 only: beads coated with OKT3 alone
time to death of the cells [1]: ≤ 1 week

αCD3 only: plastic immobilized anti-CD3 mAb (OKT3) alone
GM-CSF [2]: 9770 pg/mL
IFN-γ [2]: 1270 pg/mL
IL-2 [2]: 93 pg/mL
GM-CSF [3]: 280 pg/mL
IFN-γ [3]: 280 pg/mL
IL-2 [3]: <60 pg/mL
IL-4 [3]: <20 pg/mL
TNFα [3]: 380 pg/mL
GM-CSF [4]: 8900 pg/mL
IFN-γ [4]: 1620 pg/mL
IL-2 [4]: 133 pg/mL

CO[C@H]1[C@@H](OC)C[C@H](C)[C@@H](OC)C2=CC(=O)C=C(NC(=O)/C(C)=C/C=C\[C@H](OC)[C@@H](OC(N)=O)/C(C)=C/[C@@H]1C)C2=O [herbimycin A]
effect on CD28-induced IL-2 production [5]: can inhibit

B1: human B7-2Ig fusion protein (Fc fusion)
chain: APLKIQAYFNETADLPCQFANSQNQSLSELVVFWQDQENLVLNEVYLGKEKFDSVHSKYMGRTSFDSDSWTLRLHNLQIKDKGLYQCIIHHKKPTGMIRIHQMNSELSVLANFSQPEIVPISNITENVYINLTCSSIHGYPEPKKMSVLLRTKNSTIEYDGIMQKSQDNVTELYDVSISLSVSFPDVTSNMTIFCILETDKTRLLSSPFSIELEDPQPPPDH
notes: not shown: Fc portion of human IgG1
binding result [6]: binds
